# Reference: ChEMBL document CHEMBL1131781, “Design and synthesis of diaminopyrrolidinone inhibitors of human osteoclast cathepsin K” (Bioorg Med Chem Lett, 1999)
# pKi: −log10 of the molar value.
# Biological target: T1, Cathepsin K (Homo sapiens, UniProt P43235)
# T1 sequence (P43235 whole entry): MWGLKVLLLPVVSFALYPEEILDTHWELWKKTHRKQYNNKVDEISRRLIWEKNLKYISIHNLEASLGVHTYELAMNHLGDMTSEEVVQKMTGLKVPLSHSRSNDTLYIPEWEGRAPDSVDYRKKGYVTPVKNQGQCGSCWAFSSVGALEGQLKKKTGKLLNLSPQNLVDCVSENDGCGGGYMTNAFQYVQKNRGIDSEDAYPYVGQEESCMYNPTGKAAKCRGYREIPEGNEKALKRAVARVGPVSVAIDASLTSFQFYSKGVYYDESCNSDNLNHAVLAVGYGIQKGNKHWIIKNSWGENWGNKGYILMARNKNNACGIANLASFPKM
# Assay: Compound was tested for its inhibitory activity against human osteoclast cathepsin K
row,pKi,Structure (SMILES)
1,7.48,CC(C)C[C@H](NC(=O)OCc1ccccc1)c1nc(C(=O)NN2CC[C@@](CC(C)C)(NC(=O)OCc3ccccc3)C2=O)cs1
2,6.48,CC(C)C[C@H](NC(=O)OCc1ccccc1)c1nc(C(=O)NN2CC[C@@H](NC(=O)OCc3ccccc3)C2=O)cs1
3,8.00,CC(C)C[C@H](NC(=O)OCc1ccccc1)C(=O)NNC(=O)c1csc([C@H](CC(C)C)NC(=O)OCc2ccccc2)n1
